Assays:
human 5-HT2C receptor [1] = target: T1, human 5-HT2C receptor (Homo sapiens, UniProt P28335); test: 5-HT2C receptor binding, [125I]DOI displacement, membranes of transfected CHO cells; details: read-out: 5-HT2C Binding Ki avg
T1 construct: expressed in transfected cells; host or cells: CHO (Chinese Hamster Ovary) cells; membrane preparation
T1 sequence (P28335 33-458): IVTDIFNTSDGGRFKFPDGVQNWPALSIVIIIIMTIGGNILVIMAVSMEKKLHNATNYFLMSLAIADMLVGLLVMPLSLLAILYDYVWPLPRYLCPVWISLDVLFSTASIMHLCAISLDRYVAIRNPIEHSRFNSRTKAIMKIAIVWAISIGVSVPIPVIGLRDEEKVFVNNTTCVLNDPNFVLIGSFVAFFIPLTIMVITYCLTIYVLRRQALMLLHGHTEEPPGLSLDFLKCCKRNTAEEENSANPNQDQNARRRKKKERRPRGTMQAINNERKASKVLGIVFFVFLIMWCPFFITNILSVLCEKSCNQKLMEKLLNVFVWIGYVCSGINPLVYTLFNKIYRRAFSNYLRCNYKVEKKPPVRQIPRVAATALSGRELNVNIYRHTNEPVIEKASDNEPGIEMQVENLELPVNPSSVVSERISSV

human 5-HT2C receptor [2] = target: T1, human 5-HT2C receptor; test: 5-HT2C receptor-stimulated calcium mobilization (FLIPR) in CHO cells; assay type: cell-based; details: for Emax: CHO, read-out: 5-HT2C Function EMax (%); for EC50: calcium mobilization, CHO cells, read-out: 5-HT2C Function EC50

CN1CC(CN)Oc2c(-c3ccccc3F)cccc21 (racemic) [Example 7, 1-[8-(2-Fluorophenyl)-4-methyl-3,4-dihydro-2H-1,4-benzoxazin-2-yl]methanamine] showed a Ki (human 5-HT2C receptor [1]) of 19.5 nM, an Emax (human 5-HT2C receptor [2]) of 60% and an EC50 (human 5-HT2C receptor [2]) of 72 nM.
Cc1ccccc1-c1cccc2c1OC(CN)CN2C (racemic) [Example 8, 1-[4-Methyl-8-(2-methylphenyl)-3,4-dihydro-2H-1,4-benzoxazin-2-yl]methanamine] was tested, and the Ki (human 5-HT2C receptor [1]) was 26.8 nM, the Emax (human 5-HT2C receptor [2]) was 70% and the EC50 (human 5-HT2C receptor [2]) was 82 nM.
In the case of NCC1CNc2cc(F)cc(-c3c(Cl)cccc3Cl)c2O1 (racemic) [Example 10, 1-[8-(2,6-Dichlorophenyl)-6-fluoro-3,4-dihydro-2H-1,4-benzoxazin-2-yl]methanamine], the Ki (human 5-HT2C receptor [1]) is reported as 0.9 nM, the Emax (human 5-HT2C receptor [2]) is reported as 70% and the EC50 (human 5-HT2C receptor [2]) is reported as 5 nM.
In the case of CN1CC(CN)Oc2c(-c3ccccc3Cl)cccc21 (racemic) [Example 11, 1-[8-(2-Chlorophenyl)-4-methyl-3,4-dihydro-2H-1,4-benzoxazin-2-yl]methanamine], the Ki (human 5-HT2C receptor [1]) is reported as 9.2 nM, the Emax (human 5-HT2C receptor [2]) is reported as 70% and the EC50 (human 5-HT2C receptor [2]) is reported as 37 nM.
Work on NCC1CN(CC2CC2)c2cccc(-c3ccccc3Cl)c2O1 (racemic) [Example 12, 1-[8-(2-Chlorophenyl)-4-(cyclopropylmethyl)-3,4-dihydro-2H-1,4-benzoxazin-2-yl]methanamine] yielded a Ki (human 5-HT2C receptor [1]) of 22.7 nM, an Emax (human 5-HT2C receptor [2]) of 40% and an EC50 (human 5-HT2C receptor [2]) of 166 nM.
CN1CC(CN)Oc2c(-c3cc(Cl)ccc3Cl)cccc21 (racemic) [Example 13, 1-[8-(2,5-Dichlorophenyl)-4-methyl-3,4-dihydro-2H-1,4-benzoxazin-2-yl]methanamine] was tested, and the Ki (human 5-HT2C receptor [1]) was 12.8 nM, the Emax (human 5-HT2C receptor [2]) was 70% and the EC50 (human 5-HT2C receptor [2]) was 131 nM.
Work on NCC1CNc2cccc(-c3cc(Cl)ccc3Cl)c2O1 (racemic) [Example 14, 1-[8-(2,5-Dichlorophenyl)-3,4-dihydro-2H-1,4-benzoxazin-2-yl]methanamine] yielded a Ki (human 5-HT2C receptor [1]) of 6.4 nM, an Emax (human 5-HT2C receptor [2]) of 60% and an EC50 (human 5-HT2C receptor [2]) of 12 nM.
NCC1CNc2cccc(-c3ccc(Cl)cc3Cl)c2O1 (racemic) [Example 15, 1-[8-(2,4-Dichlorophenyl)-3,4-dihydro-2H-1,4-benzoxazin-2-yl]methanamine] gave a Ki (human 5-HT2C receptor [1]) of 15.9 nM, an Emax (human 5-HT2C receptor [2]) of 70% and an EC50 (human 5-HT2C receptor [2]) of 8 nM.
NCC1CNc2cccc(-c3ccccc3Cl)c2O1 (racemic) [Example 16, 1-[8-(2-Chlorophenyl)-3,4-dihydro-2H-1,4-benzoxazin-2-yl]methanamine] gave a Ki (human 5-HT2C receptor [1]) of 14 nM, an Emax (human 5-HT2C receptor [2]) of 70% and an EC50 (human 5-HT2C receptor [2]) of 3 nM.
Molecule Cc1ccccc1-c1cccc2c1OC(CN)CN2 (racemic) [Example 17, 1-[8-(2-Methylphenyl)-3,4-dihydro-2H-1,4-benzoxazin-2-yl]methanamine] has a Ki (human 5-HT2C receptor [1]) of 31 nM, an Emax (human 5-HT2C receptor [2]) of 72% and an EC50 (human 5-HT2C receptor [2]) of 101 nM.
Work on NCC1CNc2cccc(-c3ccc(Cl)cc3C(F)(F)F)c2O1 (racemic) [Example 18, 1-{8-[4-Chloro-2-(trifluoromethyl)phenyl]-3,4-dihydro-2H-1,4-benzoxazin-2-yl}methanamine] yielded a Ki (human 5-HT2C receptor [1]) of 7.9 nM, an Emax (human 5-HT2C receptor [2]) of 56% and an EC50 (human 5-HT2C receptor [2]) of 109 nM.
In the case of Cc1cc(Cl)ccc1-c1cccc2c1OC(CN)CN2 (racemic) [Example 20, 1-[8-(4-chloro-2-methylphenyl)-3,4-dihydro-2H-1,4-benzoxazin-2-yl]methanamine], the Ki (human 5-HT2C receptor [1]) is reported as 19.5 nM, the Emax (human 5-HT2C receptor [2]) is reported as 75% and the EC50 (human 5-HT2C receptor [2]) is reported as 285 nM.
Work on NCC1CNc2cccc(-c3ccccc3C(F)(F)F)c2O1 (racemic) [Example 22, 1-{8-[2-(Trifluoromethyl)phenyl]-3,4-dihydro-2H-1,4-benzoxazin-2-yl}methanamine] yielded a Ki (human 5-HT2C receptor [1]) of 7.2 nM, an Emax (human 5-HT2C receptor [2]) of 72% and an EC50 (human 5-HT2C receptor [2]) of 39 nM.
With NCC1CNc2cccc(-c3ccc(C(F)(F)F)cc3C(F)(F)F)c2O1 (racemic) [Example 23, 1-{8-[2,4-Bis(trifluoromethyl)phenyl]-3,4-dihydro-2H-1,4-benzoxazin-2-yl}methanamine] the Ki (human 5-HT2C receptor [1]) was 39.5 nM, the Emax (human 5-HT2C receptor [2]) was 79% and the EC50 (human 5-HT2C receptor [2]) was 367 nM.
In the case of COc1ccc(-c2cccc3c2OC(CN)CN3)c(C)c1 (racemic) [Example 24, 1-[8-(4-Methoxy-2-methylphenyl)-3,4-dihydro-2H-1,4-benzoxazin-2-yl]methanamine], the Ki (human 5-HT2C receptor [1]) is reported as 14.9 nM, the Emax (human 5-HT2C receptor [2]) is reported as 75% and the EC50 (human 5-HT2C receptor [2]) is reported as 25 nM.
For COc1ccc(-c2cc(Cl)cc3c2NC(CN)CO3)c(C)c1 (racemic) [Example 27, 1-[7-chloro-5-(4-methoxy-2-methylphenyl)-3,4-dihydro-2H-1,4-benzoxazin-3-yl]methanamine], the Ki (human 5-HT2C receptor [1]) was 53.2 nM, the Emax (human 5-HT2C receptor [2]) was 47% and the EC50 (human 5-HT2C receptor [2]) was 1290 nM.
Molecule Cc1ccc(-c2cc(Cl)cc3c2NC(CN)CO3)c(C(F)(F)F)c1 (racemic) [Example 31, 1-{7-chloro-5-[4-methyl-2-(trifluoromethyl)phenyl]-3,4-dihydro-2H-1,4-benzoxazin-3-yl}methanamine] has a Ki (human 5-HT2C receptor [1]) of 30.5 nM, an Emax (human 5-HT2C receptor [2]) of 60% and an EC50 (human 5-HT2C receptor [2]) of 876 nM.
With COc1ccc(-c2cc(Cl)cc3c2NC(CN)CO3)c(Cl)c1 (racemic) [Example 32, 1-[7-chloro-5-(2-chloro-4-methoxyphenyl)-3,4-dihydro-2H-1,4-benzoxazin-3-yl]methanamine] the Ki (human 5-HT2C receptor [1]) was 29.5 nM, the Emax (human 5-HT2C receptor [2]) was 57% and the EC50 (human 5-HT2C receptor [2]) was 1010 nM.
NCC1COc2cc(Cl)cc(-c3ccccc3Cl)c2N1 (racemic) [Example 36, 1-[7-chloro-5-(2-chlorophenyl)-3,4-dihydro-2H-1,4-benzoxazin-3-yl]methanamine] was tested, and the Ki (human 5-HT2C receptor [1]) was 46.8 nM, the Emax (human 5-HT2C receptor [2]) was 53% and the EC50 (human 5-HT2C receptor [2]) was 845 nM.
With NCC1COc2cc(F)cc(-c3ccccc3C(F)(F)F)c2N1 (racemic) [Example 55, 1-{7-fluoro-5-[2-(trifluoromethyl)phenyl]-3,4-dihydro-2H-1,4-benzoxazin-3-yl}methanamine] the Ki (human 5-HT2C receptor [1]) was 19.3 nM, the Emax (human 5-HT2C receptor [2]) was 54% and the EC50 (human 5-HT2C receptor [2]) was 331 nM.
COc1ccc(-c2cc(F)cc3c2NC(CN)CO3)c(Cl)c1 (racemic) [Example 59, 1-[5-(2-chloro-4-methoxyphenyl)-7-fluoro-3,4-dihydro-2H-1,4-benzoxazin-3-yl]methanamine] showed a Ki (human 5-HT2C receptor [1]) of 36.9 nM, an Emax (human 5-HT2C receptor [2]) of 59% and an EC50 (human 5-HT2C receptor [2]) of 138 nM.
With NC[C@H]1CNc2cccc(-c3ccccc3Cl)c2O1 [Example 39, 1-[(2S)-8-(2-chlorophenyl)-3,4-dihydro-2H-1,4-benzoxazin-2-yl]methanamine] the Ki (human 5-HT2C receptor [1]) was 14.8 nM, the Emax (human 5-HT2C receptor [2]) was 60% and the EC50 (human 5-HT2C receptor [2]) was 6.87 nM.
NC[C@@H]1CNc2cccc(-c3ccccc3Cl)c2O1 [Example 40, 1-[(2R)-8-(2-chlorophenyl)-3,4-dihydro-2H-1,4-benzoxazin-2-yl]methanamine] gave a Ki (human 5-HT2C receptor [1]) of 60.5 nM, an Emax (human 5-HT2C receptor [2]) of 45% and an EC50 (human 5-HT2C receptor [2]) of 44.3 nM.
Molecule NC[C@@H]1CNc2cccc(-c3ccccc3C(F)(F)F)c2O1 [Example 41, 1-{(2R)-8-[2-(trifluoromethyl)phenyl]-3,4-dihydro-2H-1,4-benzoxazin-2-yl}methanamine] has a Ki (human 5-HT2C receptor [1]) of 16.6 nM, an Emax (human 5-HT2C receptor [2]) of 62% and an EC50 (human 5-HT2C receptor [2]) of 10.5 nM.
With NC[C@H]1CNc2cccc(-c3ccccc3C(F)(F)F)c2O1 [Example 47, 1-{(2S)-8-[2-(trifluoromethyl)phenyl]-3,4-dihydro-2H-1,4-benzoxazin-2-yl}methanamine] the Ki (human 5-HT2C receptor [1]) was 35 nM, the Emax (human 5-HT2C receptor [2]) was 80% and the EC50 (human 5-HT2C receptor [2]) was 2.74 nM.
Work on COc1ccc(-c2cccc3c2O[C@@H](CN)CN3)c(C)c1 [Example 50, 1-[(2S)-8-(4-methoxy-2-methylphenyl)-3,4-dihydro-2H-1,4-benzoxazin-2-yl]methanamine] yielded a Ki (human 5-HT2C receptor [1]) of 33.3 nM, an Emax (human 5-HT2C receptor [2]) of 74% and an EC50 (human 5-HT2C receptor [2]) of 0.72 nM.
COc1ccc(-c2cccc3c2O[C@@H](CN)CN3)c(Cl)c1 [Example 52, 1-[(2S)-8-(2-chloro-4-methoxyphenyl)-3,4-dihydro-2H-1,4-benzoxazin-2-yl]methanamine] showed a Ki (human 5-HT2C receptor [1]) of 9.05 nM, an Emax (human 5-HT2C receptor [2]) of 78% and an EC50 (human 5-HT2C receptor [2]) of 0.17 nM.

— patent publication US20100035871A1, “BENZOXAZINE DERIVATIVES AND USES THEREOF” (priority 2006, published 2010)
